The record followed here is patent US9340590B2 (priority 2011, dated 2016).

Where two headings read alike, the source gives them in different places. Positions of bridges follow the written chain, without caps; N, C: chain ends. Non-standard residues stand in square brackets, D forms with d. Residues, ends and D or L forms follow the SMILES beside them. 1Nal = N[C@@H](Cc1cccc2ccccc12)C(=O)O

Common to all, as to experiment: cell-based
One experiment addresses hNav1.5 (Homo sapiens, UniProt Q14524).
A further experiment has as its target hNav1.3 (Homo sapiens, UniProt Q9NY46). As to conditions: IonWorks Quattro, read-out: IWQ Use Nav1.3.
Another experiment concerns the target hNav1.7 (Homo sapiens, UniProt Q15858). The format is cell-based. As to conditions: IonWorks Quattro, read-out: IWQ Use Nav1.7.
[1] abbreviates: IonWorks Quattro, use-dependent block, hNav1.5, read-out: IWQ Use Nav1.5.

Sequence of hNav1.7 (Q15858 whole entry, looked up): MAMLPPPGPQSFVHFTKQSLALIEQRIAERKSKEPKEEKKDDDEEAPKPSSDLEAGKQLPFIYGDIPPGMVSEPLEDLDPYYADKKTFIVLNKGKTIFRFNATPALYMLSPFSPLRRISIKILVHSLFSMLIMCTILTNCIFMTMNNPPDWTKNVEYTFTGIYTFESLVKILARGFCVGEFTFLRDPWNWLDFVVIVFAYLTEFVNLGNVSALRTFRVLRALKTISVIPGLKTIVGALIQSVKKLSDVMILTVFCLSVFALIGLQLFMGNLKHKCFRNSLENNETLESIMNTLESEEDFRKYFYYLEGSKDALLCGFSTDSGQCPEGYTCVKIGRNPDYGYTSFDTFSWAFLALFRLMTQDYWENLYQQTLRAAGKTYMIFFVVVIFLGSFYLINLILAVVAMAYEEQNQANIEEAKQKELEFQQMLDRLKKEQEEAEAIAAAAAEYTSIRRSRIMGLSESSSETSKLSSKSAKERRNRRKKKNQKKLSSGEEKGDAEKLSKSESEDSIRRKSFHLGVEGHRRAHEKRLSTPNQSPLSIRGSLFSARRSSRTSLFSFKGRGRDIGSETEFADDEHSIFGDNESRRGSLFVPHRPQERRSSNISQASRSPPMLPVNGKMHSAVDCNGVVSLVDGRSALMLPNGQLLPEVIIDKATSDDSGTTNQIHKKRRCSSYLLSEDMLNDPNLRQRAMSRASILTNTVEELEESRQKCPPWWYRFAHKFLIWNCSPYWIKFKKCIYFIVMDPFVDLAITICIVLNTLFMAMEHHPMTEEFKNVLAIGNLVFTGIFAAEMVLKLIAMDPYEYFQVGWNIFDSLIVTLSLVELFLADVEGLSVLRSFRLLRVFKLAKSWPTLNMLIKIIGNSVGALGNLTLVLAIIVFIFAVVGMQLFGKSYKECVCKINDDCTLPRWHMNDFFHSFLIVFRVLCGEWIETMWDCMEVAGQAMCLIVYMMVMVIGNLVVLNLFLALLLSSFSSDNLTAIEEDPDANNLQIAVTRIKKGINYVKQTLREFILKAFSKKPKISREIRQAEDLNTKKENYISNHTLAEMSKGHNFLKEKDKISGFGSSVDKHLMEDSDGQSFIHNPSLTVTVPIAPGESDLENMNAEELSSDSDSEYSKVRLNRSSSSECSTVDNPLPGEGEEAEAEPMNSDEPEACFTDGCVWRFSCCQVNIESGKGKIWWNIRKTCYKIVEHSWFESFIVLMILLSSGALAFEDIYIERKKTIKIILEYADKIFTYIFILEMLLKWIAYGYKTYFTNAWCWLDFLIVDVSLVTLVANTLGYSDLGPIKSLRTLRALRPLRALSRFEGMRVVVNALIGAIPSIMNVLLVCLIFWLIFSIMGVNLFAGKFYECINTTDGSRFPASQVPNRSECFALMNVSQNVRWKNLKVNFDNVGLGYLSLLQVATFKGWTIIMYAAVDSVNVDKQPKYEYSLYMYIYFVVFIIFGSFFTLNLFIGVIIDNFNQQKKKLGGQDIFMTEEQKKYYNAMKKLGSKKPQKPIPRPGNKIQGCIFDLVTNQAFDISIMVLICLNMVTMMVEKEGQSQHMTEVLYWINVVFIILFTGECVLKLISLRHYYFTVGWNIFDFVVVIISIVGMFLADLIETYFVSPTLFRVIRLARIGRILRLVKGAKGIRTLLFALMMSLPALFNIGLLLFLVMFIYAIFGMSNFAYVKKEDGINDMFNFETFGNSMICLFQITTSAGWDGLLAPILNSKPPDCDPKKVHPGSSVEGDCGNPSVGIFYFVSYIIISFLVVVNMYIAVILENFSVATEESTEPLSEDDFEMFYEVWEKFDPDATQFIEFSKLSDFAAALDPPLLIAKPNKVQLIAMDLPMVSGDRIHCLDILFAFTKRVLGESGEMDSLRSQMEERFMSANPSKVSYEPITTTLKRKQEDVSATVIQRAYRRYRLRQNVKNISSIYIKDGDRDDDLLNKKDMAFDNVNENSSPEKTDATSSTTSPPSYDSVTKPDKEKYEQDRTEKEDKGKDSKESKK
Sequence of hNav1.5 (Q14524 whole entry, looked up): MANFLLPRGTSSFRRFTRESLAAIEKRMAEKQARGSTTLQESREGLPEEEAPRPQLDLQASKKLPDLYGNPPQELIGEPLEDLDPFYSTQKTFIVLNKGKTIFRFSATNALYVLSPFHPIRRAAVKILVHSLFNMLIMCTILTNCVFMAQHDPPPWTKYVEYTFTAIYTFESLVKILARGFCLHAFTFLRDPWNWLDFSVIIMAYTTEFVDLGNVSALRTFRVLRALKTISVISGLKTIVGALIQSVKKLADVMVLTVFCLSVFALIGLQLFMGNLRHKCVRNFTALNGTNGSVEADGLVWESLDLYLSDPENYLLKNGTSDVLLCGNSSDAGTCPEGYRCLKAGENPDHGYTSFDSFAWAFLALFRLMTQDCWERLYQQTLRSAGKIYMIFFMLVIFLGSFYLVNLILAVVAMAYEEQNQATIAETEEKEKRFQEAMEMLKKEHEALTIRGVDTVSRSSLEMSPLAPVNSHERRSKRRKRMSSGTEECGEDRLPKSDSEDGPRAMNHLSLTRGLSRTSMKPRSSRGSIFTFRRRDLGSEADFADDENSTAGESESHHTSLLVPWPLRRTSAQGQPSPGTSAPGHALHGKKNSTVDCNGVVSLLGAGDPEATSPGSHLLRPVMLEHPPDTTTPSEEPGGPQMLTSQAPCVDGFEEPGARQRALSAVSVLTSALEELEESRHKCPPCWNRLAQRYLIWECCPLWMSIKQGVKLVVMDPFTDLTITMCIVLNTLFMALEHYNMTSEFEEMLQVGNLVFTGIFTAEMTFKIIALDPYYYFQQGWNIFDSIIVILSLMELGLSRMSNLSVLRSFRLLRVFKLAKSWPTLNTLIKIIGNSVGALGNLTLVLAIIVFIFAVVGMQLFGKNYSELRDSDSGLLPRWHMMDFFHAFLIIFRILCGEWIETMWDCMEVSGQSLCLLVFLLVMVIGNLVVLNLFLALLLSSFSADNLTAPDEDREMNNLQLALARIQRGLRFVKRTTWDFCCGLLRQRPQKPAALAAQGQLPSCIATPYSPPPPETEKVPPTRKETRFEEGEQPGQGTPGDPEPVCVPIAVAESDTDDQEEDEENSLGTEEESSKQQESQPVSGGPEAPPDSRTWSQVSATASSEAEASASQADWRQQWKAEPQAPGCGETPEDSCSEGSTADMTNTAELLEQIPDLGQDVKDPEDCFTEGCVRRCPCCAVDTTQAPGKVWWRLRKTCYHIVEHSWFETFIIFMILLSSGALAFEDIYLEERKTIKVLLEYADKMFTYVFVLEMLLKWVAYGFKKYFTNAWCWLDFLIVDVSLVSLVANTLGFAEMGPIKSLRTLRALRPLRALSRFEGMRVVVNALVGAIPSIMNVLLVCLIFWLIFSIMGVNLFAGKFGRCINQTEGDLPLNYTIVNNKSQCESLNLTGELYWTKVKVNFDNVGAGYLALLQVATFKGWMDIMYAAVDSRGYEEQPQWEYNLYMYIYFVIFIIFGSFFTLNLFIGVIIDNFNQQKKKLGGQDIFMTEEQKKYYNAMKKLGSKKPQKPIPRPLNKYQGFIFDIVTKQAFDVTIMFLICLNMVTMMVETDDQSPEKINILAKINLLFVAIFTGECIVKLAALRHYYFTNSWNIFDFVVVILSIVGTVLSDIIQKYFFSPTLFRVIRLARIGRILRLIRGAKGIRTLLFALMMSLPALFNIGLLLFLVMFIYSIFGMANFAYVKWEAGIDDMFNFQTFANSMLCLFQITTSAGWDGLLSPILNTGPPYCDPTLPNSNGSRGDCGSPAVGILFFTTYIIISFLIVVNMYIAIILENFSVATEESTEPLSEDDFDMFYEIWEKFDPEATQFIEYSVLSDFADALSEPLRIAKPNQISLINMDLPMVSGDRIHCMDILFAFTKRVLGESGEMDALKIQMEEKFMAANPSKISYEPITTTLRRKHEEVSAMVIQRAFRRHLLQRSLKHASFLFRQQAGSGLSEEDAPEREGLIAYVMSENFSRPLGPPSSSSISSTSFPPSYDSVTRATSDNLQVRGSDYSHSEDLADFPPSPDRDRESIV

For the compound `CC[C@H](C)[C@@H]1NC(=O)[C@@H]2CSSC[C@@H]3NC(=O)[C@H](C(C)C)NC(=O)[C@H](CC(C)C)NC(=O)[C@H](CC(N)=O)NC(=O)[C@@H]4CCCN4C(=O)[C@H](CCCNC(=N)N)NC(=O)[C@H](CSSC[C@H](NC(=O)[C@@H](N)CC(=O)O)C(=O)N[C@@H](CC(C)C)C(=O)NCC(=O)N[C@@H](C)C(=O)N[C@@H](CCSC)C(=O)N[C@@H](CCCNC(=N)N)C(=O)N[C@@H](CCCCN)C(=O)N2)NC(=O)[C@H](CSSC[C@@H](C(=O)N[C@@H](CCCCN)C(=O)N[C@@H](Cc2ccc(O)cc2)C(=O)N[C@H](C(=O)N[C@@H](Cc2ccccc2)C(N)=O)C(C)C)NC(=O)[C@H](Cc2c[nH]c4ccccc24)NC(=O)[C@H](CCCCN)NC(=O)[C@H](Cc2c[nH]cn2)NC(=O)[C@H]([C@@H](C)O)NC(=O)[C@H](CCCNC(=N)N)NC(=O)[C@H](CO)NC3=O)NC(=O)[C@H](CCCCN)NC(=O)[C@H](CC(=O)O)NC(=O)[C@H](Cc2cccc3ccccc23)NC(=O)[C@H](CC(=O)O)NC(=O)[C@@H]2CCCN2C1=O` [compound 427] (H-DCLGAMRKCIPD[1Nal]DKCCRPNLVCSRTHKWCKYVF-NH2; disulfide 2-17, 9-23, 16-30), the IC50 on hNav1.5 (setting [1]) is greater than 5 µM; on hNav1.3 (use-dependent block, hNav1.3), 1180 nM; at hNav1.7 (use-dependent block, hNav1.7), 650 nM.
On the same counts, the results for `CC[C@H](C)[C@@H]1NC(=O)[C@@H]2CSSC[C@@H]3NC(=O)[C@H](C(C)C)NC(=O)[C@H](CC(C)C)NC(=O)[C@H](CC(N)=O)NC(=O)[C@@H]4CCCN4C(=O)[C@H](CCCNC(=N)N)NC(=O)[C@H](CSSC[C@H](NC(=O)[C@@H](N)CC(=O)O)C(=O)N[C@@H](CC(C)C)C(=O)NCC(=O)N[C@@H](C)C(=O)N[C@@H](Cc4ccccc4)C(=O)N[C@@H](CCCNC(=N)N)C(=O)N[C@@H](CCCCN)C(=O)N2)NC(=O)[C@H](CSSC[C@@H](C(=O)N[C@@H](CCCCN)C(=O)N[C@@H](Cc2ccc(O)cc2)C(=O)N[C@H](C(=O)N[C@@H](Cc2ccccc2)C(=O)O)C(C)C)NC(=O)[C@H](Cc2c[nH]c4ccccc24)NC(=O)[C@H](CCCNC(=N)N)NC(=O)[C@H](Cc2c[nH]cn2)NC(=O)[C@H]([C@@H](C)O)NC(=O)[C@H](CCCNC(=N)N)NC(=O)[C@H](CO)NC3=O)NC(=O)[C@H](CCCCN)NC(=O)[C@H](CC(=O)O)NC(=O)[C@H](CCC(=O)O)NC(=O)[C@H](CC(=O)O)NC(=O)[C@@H]2CCCN2C1=O` [compound 838] are greater than 5 µM, 1900 nM and greater than 5000 nM.
Take `CC[C@H](C)[C@@H]1NC(=O)[C@@H]2CSSC[C@@H]3NC(=O)[C@H](Cc4ccccc4)NC(=O)[C@H](CC(C)C)NC(=O)[C@H](CC(N)=O)NC(=O)[C@@H]4CCCN4C(=O)[C@H](CCCNC(=N)N)NC(=O)[C@H](CSSC[C@H](NC(=O)[C@@H](N)CC(=O)O)C(=O)N[C@@H](CC(C)C)C(=O)NCC(=O)N[C@@H](Cc4ccccc4)C(=O)N[C@@H](CCSC)C(=O)N[C@@H](CCCNC(=N)N)C(=O)N[C@@H](CCCCN)C(=O)N2)NC(=O)[C@H](CSSC[C@@H](C(=O)N[C@@H](CCCCN)C(=O)N[C@@H](Cc2ccc(O)cc2)C(=O)N[C@H](C(=O)N[C@@H](Cc2ccccc2)C(N)=O)C(C)C)NC(=O)[C@H](Cc2c[nH]c4ccccc24)NC(=O)[C@H](CCCCN)NC(=O)[C@H](Cc2c[nH]cn2)NC(=O)[C@H]([C@@H](C)O)NC(=O)[C@H](CCCNC(=N)N)NC(=O)[C@H](CO)NC3=O)NC(=O)[C@H](CCCCN)NC(=O)[C@H](CC(=O)O)NC(=O)[C@H](CC(N)=O)NC(=O)[C@H](CC(=O)O)NC(=O)[C@@H]2CCCN2C1=O` [compound 319] (H-DCLGFMRKCIPDNDKCCRPNLFCSRTHKWCKYVF-NH2; disulfide 2-17, 9-23, 16-30): the values for the IC50 against hNav1.5 (IWQ Use Nav1.5 (μM)), at hNav1.3 (Use) and at hNav1.7 (Use) were greater than 5 µM, 1020 nM and 700 nM, respectively.
With `CSCC[C@@H]1NC(=O)[C@H](Cc2ccccc2)NC(=O)CNC(=O)[C@H](CC(C)C)NC(=O)[C@@H](NC(=O)[C@@H](N)CC(=O)O)CSSC[C@@H]2NC(=O)[C@@H]3CSSC[C@@H](C(=O)N[C@@H](CCCCN)C(=O)N[C@@H](Cc4ccc(O)cc4)C(=O)N[C@H](C(=O)N[C@@H](Cc4ccccc4)C(N)=O)C(C)C)NC(=O)[C@H](Cc4c[nH]c5ccccc45)NC(=O)[C@H](CCCCN)NC(=O)[C@H](Cc4c[nH]cn4)NC(=O)[C@H]([C@@H](C)O)NC(=O)[C@H](CCCNC(=N)N)NC(=O)[C@H](CO)NC(=O)[C@H](CSSC[C@H](NC(=O)[C@H](CCCCN)NC(=O)[C@H](CCCNC(=N)N)NC1=O)C(=O)N[C@@H](Cc1ccccn1)C(=O)N1CCC[C@H]1C(=O)N[C@@H](CC(=O)O)C(=O)N[C@@H](CC(N)=O)C(=O)N[C@@H](CC(=O)O)C(=O)N[C@@H](CCCCN)C(=O)N3)NC(=O)[C@H](C(C)C)NC(=O)[C@H](CC(C)C)NC(=O)[C@H](CC(N)=O)NC(=O)[C@@H]1CCCN1C(=O)[C@H](CCCNC(=N)N)NC2=O` [compound 311], the IC50 is 8.83 µM at hNav1.5 (IonWorks Quattro, Use, read-out: IWQ Use Nav1.5); 40 nM at hNav1.3 (Use); 190 nM at hNav1.7 (Use).
`CC[C@H](C)[C@@H]1NC(=O)[C@@H]2CSSC[C@@H]3NC(=O)[C@H](C(C)C)NC(=O)[C@H](CC(C)C)NC(=O)[C@H](CC(N)=O)NC(=O)[C@@H]4CCCN4C(=O)[C@H](CCCNC(=N)N)NC(=O)[C@H](CSSC[C@H](NC(=O)[C@@H](N)CC(=O)O)C(=O)N[C@@H](CC(C)C)C(=O)NCC(=O)N[C@@H](Cc4ccccc4)C(=O)N[C@@H](CCSC)C(=O)N[C@@H](CCCNC(=N)N)C(=O)N[C@@H](CCCCN)C(=O)N2)NC(=O)[C@H](CSSC[C@@H](C(=O)N[C@@H](CCCCN)C(=O)N[C@@H](Cc2ccc(O)cc2)C(=O)N[C@@H](Cc2cccc4ccccc24)C(=O)N[C@@H](Cc2ccccc2)C(N)=O)NC(=O)[C@H](Cc2c[nH]c4ccccc24)NC(=O)[C@H](CCCCN)NC(=O)[C@H](Cc2c[nH]cn2)NC(=O)[C@H](CC(C)C)NC(=O)[C@H](CCCNC(=N)N)NC(=O)[C@H](CO)NC3=O)NC(=O)[C@H](CCCCN)NC(=O)[C@H](CC(=O)O)NC(=O)[C@H](CC(N)=O)NC(=O)[C@H](CC(=O)O)NC(=O)[C@@H]2CCCN2C1=O` [compound 463] (H-DCLGFMRKCIPDNDKCCRPNLVCSRLHKWCKY[1Nal]F-NH2; disulfide 2-17, 9-23, 16-30): the IC50 at hNav1.5 (setting [1]) was greater than 5 µM; at hNav1.3 (use-dependent block, hNav1.3), 180 nM; at hNav1.7 (use-dependent block, hNav1.7) it was 130 nM.
In the case of `CC[C@H](C)[C@@H]1NC(=O)[C@@H]2CSSC[C@@H]3NC(=O)[C@H](C(C)C)NC(=O)[C@H](CC(C)C)NC(=O)[C@H](CC(N)=O)NC(=O)[C@@H]4CCCN4C(=O)[C@H](CCCNC(=N)N)NC(=O)[C@H](CSSC[C@H](NC(=O)[C@H](CC(=O)O)NC(=O)[C@H](CO)NC(=O)CN)C(=O)N[C@@H](CC(C)C)C(=O)NCC(=O)N[C@@H](C)C(=O)N[C@@H](Cc4ccccc4)C(=O)N[C@@H](CCCNC(=N)N)C(=O)N[C@@H](CCCCN)C(=O)N2)NC(=O)[C@H](CSSC[C@@H](C(=O)N[C@@H](CCCCN)C(=O)N[C@@H](Cc2ccc(O)cc2)C(=O)N[C@H](C(=O)N[C@@H](Cc2ccccc2)C(N)=O)C(C)C)NC(=O)[C@H](Cc2c[nH]c4ccccc24)NC(=O)[C@H](CCCNC(=N)N)NC(=O)[C@H](Cc2c[nH]cn2)NC(=O)[C@H]([C@@H](C)O)NC(=O)[C@H](CCCNC(=N)N)NC(=O)[C@H](CO)NC3=O)NC(=O)[C@H](CCCCN)NC(=O)[C@H](CC(=O)O)NC(=O)[C@H](CC(N)=O)NC(=O)[C@H](CC(=O)O)NC(=O)[C@@H]2CCCN2C1=O` [compound 811] (H-GSDCLGAFRKCIPDNDKCCRPNLVCSRTHRWCKYVF-NH2; disulfide 4-19, 11-25, 18-32), the IC50 on hNav1.5 (setting [1]) was greater than 5 µM; at hNav1.3 (use-dependent block, hNav1.3), 300 nM; on hNav1.7 (use-dependent block, hNav1.7) it was 300 nM.
With `CC[C@H](C)[C@@H]1NC(=O)[C@@H]2CSSC[C@@H]3NC(=O)[C@H](C(C)C)NC(=O)[C@H](CC(C)C)NC(=O)[C@H](CC(N)=O)NC(=O)[C@@H]4CCCN4C(=O)[C@H](CCCNC(=N)N)NC(=O)[C@H](CSSC[C@H](NC(=O)[C@@H](N)CC(=O)O)C(=O)N[C@@H](CC(C)C)C(=O)NCC(=O)N[C@@H](C)C(=O)N[C@@H](Cc4ccc(O)cc4)C(=O)N[C@@H](CCCNC(=N)N)C(=O)N[C@@H](CCCCN)C(=O)N2)NC(=O)[C@H](CSSC[C@@H](C(=O)N[C@@H](CCCCN)C(=O)N[C@@H](Cc2ccc(O)cc2)C(=O)N[C@H](C(=O)N[C@@H](Cc2ccccc2)C(N)=O)C(C)C)NC(=O)[C@H](Cc2c[nH]c4ccccc24)NC(=O)[C@H](CCCCN)NC(=O)[C@H](Cc2c[nH]cn2)NC(=O)[C@H]([C@@H](C)O)NC(=O)[C@H](CCCNC(=N)N)NC(=O)[C@H](CO)NC3=O)NC(=O)[C@H](CCCCN)NC(=O)[C@H](CC(=O)O)NC(=O)[C@H](CC(N)=O)NC(=O)[C@H](CC(=O)O)NC(=O)[C@@H]2CCCN2C1=O` [compound 698] (H-DCLGAYRKCIPDNDKCCRPNLVCSRTHKWCKYVF-NH2; disulfide 2-17, 9-23, 16-30), the IC50 was greater than 5 µM at hNav1.5 (IonWorks Quattro, use-dependent protocol, hNav1.5, read-out: IWQ Use Nav1.5); greater than 5000 nM on hNav1.3 (use-dependent protocol, hNav1.3); 4400 nM on hNav1.7 (use-dependent protocol, hNav1.7).
